According to patent US11471502B2, “Neuroprotective peptide” (UNIVERSITY COLLEGE CARDIFF C[…], priority 2017, dated 2022):
“Also recorded” adds a separate entry of the source.

Assays:
[1] = tested on: WT mice; test: Novel Object Recognition Test (NOR); assay type: in vivo, mouse; settings: for memory formation and consolidation in NOR: 24, 48, 72 and 120 h (up to 5 days)
Experimental: a) After a 5 min habituation session in the empty arena on day 1, mice were injected with RB5 (20 mg/kg) or vehicle one hour before the training session with two identical objects on day 2 and were then evaluated for their long-term memory on subsequent days. Discrimination Index (D.I.) was tested at different time points 24, 48, 72, and 120 hrs (a) and also up to 168 h (b). […] On subsequent days, while the RB5 group remained high, the Scramble group returned to basal levels. *p<0.01**p<0.0001. […] At 24 h, D.I. of RB5 group was highly significant (Independent sample t-test t26=4.428 P<0.01, SCR (n=14) RB5 (=14)) as well as at 48 h (Independent sample t-test t38=4.210 P<0.0001, SCR (n=18) RB5 (=22)). […] P<0.001, P<0.01.
The test was performed in an open square box (45×45×45 cm), placed in a quiet room with dim light. The objects used were: parallelepipeds in metal and glass vials filled with water. They had no natural significance for mice and they had never been associated with reinforcement before. The protocol required three days and it was performed as follows:
First day: the mice were individually placed in the empty arena for 5 min in order to familiarize with it and to measure their anxiety (thigmotaxis trial). The percentage of thigmotaxis is calculated as the time spent in the peripheral zone out of the total time spent in the arena (300 sec.). Animals showing a thigmotaxis>90% are discarded from the sample because considered biased for anxiety.
Second day: Mice were injected with either […] CPP-SCR or CPP-RB5 1 h prior to training and then they were placed into the arena for 10 minutes, where they were allowed to explore two identical objects (training trial). Therefore, two different measures (in seconds) for Left Object and Right Object were obtained. […] Then, percentages of exploration for each object were calculated as: the time spent exploring LO or RO, out of the total time of exploration (RO+LO). According to these percentages, experimenter decided where to place the novel object for the test trial.
Third day: one of the two identical objects (Parallelepiped) was changed with a new object (Vial) and the mice were allowed to explore them for 10 minutes (test trial).
Times of exploration for the familiar object (FO) and for the novel object (NO) were separately recorded, with the same procedure as for the training trial. A cut-off of 6 seconds was also considered. In order to attest recognition memory, a discrimination index (D.I.) was calculated as (total time of exploration of NO−total time of exploration of FO)/total time of exploration of (FO+NO). D.I. index is comprised between −1 and +1. A D.I. of 1 would mean perfect memory retention for the […]. Conversely, the more time the animal spends exploring FO the lower will be the D.I. value, meaning poor memory retention for FO. SMART software (Panlab, Barcelona, Spain) was used to run the experiment.

[2] = tested on: Lister Hooded rats; test: Contextual Fear Conditioning after infusion into dorsal hippocampus; assay type: in vivo, rat
Experimental: (*p<0.05, **p<0.01, FLSD test).
The subjects were adult male Lister hooded rats weighing 280-350 g. They were housed in pairs, in holding rooms maintained at 21° C. on a reversed-light cycle (12 h light/dark; lights on at 10:00 P.M.). All experiments were conducted in the dark period of the rats. Food and water were freely available throughout the experiment. Steel double guide cannulae aimed at the dorsal hippocampus (AP−3.50, relative to bregma) were surgical implanted under anaesthesia at least one week prior to behavioural training and microinfusions. Bilateral infusions with either 2 mg/ml CPP-SCR or CPP-RB5, 20 min prior to conditioning (pH 7.0, […]) via the chronically indwelling cannula were carried out in awake rats using a syringe pump, connected to injectors (28 gauge, projecting 1 mm beyond the guide cannulae) by polyethylene tubing.
Conditioning was performed in one of two distinct contexts. These contexts were designed to differ in a number of distinctive characteristics including size, spatial location, odour and lighting.
Rat protocol: during the 3 min conditioning training trial, rats received a single scrambled footshock (0.5 mA for 2 s) 2 min after being placed into one of the conditioning contexts (CtxA). All rats were returned to the home cages after conditioning. Retrieval tests 3 hr (post-retrieval short-term memory, STM), or 2 days (long-term memory, LTM) after recall again consisted of exposing the rat to the conditioning context for 2 min.
For all protocols, freezing behavior served as a measure of conditioned fear to the context during the conditioning and retrieval tests of the behavioural procedures. This was video-recorded and quantified by an observer blind to the experimental group. One unit of freezing was defined as a continuous absence of movement other than that required for respiration in 1 s sampled every 10 s.

[3] = 2 mg/ml bilateral dorsal CA1 infusion 20 min prior to conditioning
[4] = 2 mg/ml infusion into dorsal hippocampus prior to CFC

`CSCC[C@H](NC(=O)[C@H](CCC(=O)O)NC(=O)[C@@H](NC(=O)[C@H](CCC(=O)O)NC(=O)CNC(=O)[C@@H]1CCCN1C(=O)[C@@H](NC(=O)CNC(=O)[C@@H]1CCCN1C(=O)CNC(=O)[C@@H](NC(=O)CNC(=O)[C@H](CCC(=O)O)NC(=O)[C@@H](NC(=O)[C@H](CCCNC(=N)N)NC(=O)[C@H](CCCNC(=N)N)NC(=O)[C@@H]1CCCN1C(=O)[C@H](CCC(=O)O)NC(=O)CNC(=O)CNC(=O)CNC(=O)CNC(=O)CNC(=O)[C@H](CCC(N)=O)NC(=O)[C@@H]1CCCN1C(=O)[C@@H]1CCCN1C(=O)[C@H](CCCNC(=N)N)NC(=O)[C@H](CCCNC(=N)N)NC(=O)[C@H](CCCNC(=N)N)NC(=O)[C@H](CCC(N)=O)NC(=O)[C@H](CCCNC(=N)N)NC(=O)[C@H](CCCNC(=N)N)NC(=O)[C@H](CCCCN)NC(=O)[C@H](CCCCN)NC(=O)[C@H](CCCNC(=N)N)NC(=O)CNC(C)=O)[C@@H](C)O)C(C)C)C(C)C)C(C)C)C(=O)N[C@H](C(=O)N[C@@H](CCCCN)C(=O)NCC(=O)N[C@@H](CCC(N)=O)C(=O)N1CCC[C@H]1C(=O)N[C@@H](Cc1ccccc1)C(=O)N[C@@H](CC(=O)O)C(=O)N[C@@H](C(=O)O)C(C)C)C(C)C` [RB5] was tested, and the “memory formation and consolidation in NOR” value [1] was “significantly enhanced”, the “Discrimination Index (D.I.)” value ([1]; 24 h, 20 mg/kg 1 h before training) was “significantly higher than the Scramble group” and the “Discrimination Index (D.I.)” value ([1]; 48 h, vs chance level) was “greatly above it”. For the same compound, the “Discrimination Index (D.I.)” value ([1]; 72 h) was “remained highly significant”, the “Discrimination Index (D.I.)” value ([1]; 120 h) was “still highly significant” and the “Discrimination Index (D.I.) / performance” value ([1]; 168 h) was “dropped to basal levels indistinguishable from SCR group; also recorded: went down to basal levels indistinguishable from SCR group”. For the same compound, the “STM and LTM (freezing at 3 hr and 2 days after training)” value [2, 3] was “increase in both STM and LTM” and the “post footshock (postUS) freezing behaviour during fear conditioning” value [2, 3] was “increase”.

In the case of “GRKKRRQRRRPPQGGGGGEPRRTEGVGPGVPGEVEMVKGQPFDV (listed as Homo sapiens) [CPP-RB5]”, the “memory formation and consolidation in NOR” value [1] is reported as “greater performances in remembering the object”, the “acquisition of contextual fear memory” value [2, 4] is reported as “enhanced” and the long-term fear memory [2, 4] is reported as “stronger long-term fear memory”.
